Measurements as given in ChEMBL document CHEMBL2385025, “Detour of prenostodione synthesis towards pyrazolones for antibacterial activity” (2013).

Tests used:
[1] = system: Staphylococcus aureus; assay: Inhibition of biofilm formation of Staphylococcus aureus ATCC 35556 at 50 uM by crystal violet staining-based spectrophotometric analysis relative to control; assay type: functional
[2] = system: Staphylococcus epidermidis; assay: Inhibition of biofilm formation of Staphylococcus epidermidis 1457 at 50 uM by crystal violet staining-based spectrophotometric analysis relative to control; assay type: functional
[3] = system: Staphylococcus aureus; assay: Growth inhibition of Staphylococcus aureus ATCC 35556 at 50 uM relative to control; assay type: functional; conditions: read-out: GI
[4] = system: Staphylococcus aureus; assay: Growth inhibition of methicillin-sensitive Staphylococcus aureus at 50 uM relative to control; assay type: functional; conditions: read-out: GI
[5] = system: Staphylococcus epidermidis; assay: Growth inhibition of Staphylococcus epidermidis 1457 at 50 uM relative to control; assay type: functional; conditions: read-out: GI
[6] = system: Pseudomonas aeruginosa; assay: Growth inhibition of Pseudomonas aeruginosa PAO1 at 50 uM relative to control; assay type: functional; conditions: read-out: GI
[7] = system: Staphylococcus aureus; assay: Inhibition of biofilm formation of Staphylococcus aureus MRSA 1094 at 50 uM by crystal violet staining-based spectrophotometric analysis relative to control
[8] = system: Staphylococcus aureus; assay: Inhibition of biofilm formation of methicillin-sensitive Staphylococcus aureus at 50 uM by crystal violet staining-based spectrophotometric analysis relative to control; assay type: functional
[9] = system: Pseudomonas aeruginosa; assay: Inhibition of biofilm formation of Pseudomonas aeruginosa PAO1 at 50 uM by crystal violet staining-based spectrophotometric analysis relative to control; assay type: functional
[10] = system: Staphylococcus aureus; assay: Growth inhibition of Staphylococcus aureus MRSA 1094 at 50 uM relative to control; conditions: read-out: GI
[11] = system: Staphylococcus epidermidis; assay: Growth inhibition of Staphylococcus epidermidis GTC 18972 at 50 uM relative to control; assay type: functional; conditions: read-out: GI
[12] = system: Staphylococcus epidermidis; assay: Inhibition of biofilm formation of Staphylococcus epidermidis GTC 18972 at 50 uM by crystal violet staining-based spectrophotometric analysis relative to control; assay type: functional

SMILES: COC(=O)CC1=NN(c2ccccc2)C(=O)/C1=C\c1c[nH]c2ccccc12
- inhibition at 50 µM [1]: 62%
- inhibition at 50 µM [2]: 47.7%
- inhibition of growth at 50 µM [3]: -19.7%
- inhibition of growth at 50 µM [4]: -19.4%
- inhibition of growth at 50 µM [5]: -7.59%
- inhibition of growth at 50 µM [6]: -10.8%
- inhibition at 50 µM [7]: -126%
- inhibition at 50 µM [8]: 8.02%
- inhibition at 50 µM [9]: -38.5%
- inhibition of growth at 50 µM [10]: 0.914%
- inhibition of growth at 50 µM [11]: -2.37%
- inhibition at 50 µM [12]: 54.5%

SMILES: CCOc1ccc(/C=C2\C(=O)N(c3ccccc3)N=C2CC(=O)OC)cc1OC
- inhibition at 50 µM [1]: 34%
- inhibition at 50 µM [2]: -1.83%
- inhibition of growth at 50 µM [3]: -2.46%
- inhibition of growth at 50 µM [4]: -0.402%
- inhibition of growth at 50 µM [5]: 4.08%
- inhibition of growth at 50 µM [6]: -1.25%
- inhibition at 50 µM [7]: 15.2%
- inhibition at 50 µM [8]: 57.8%
- inhibition at 50 µM [9]: -5.61%
- inhibition of growth at 50 µM [10]: 2.81%
- inhibition of growth at 50 µM [11]: 22%
- inhibition at 50 µM [12]: 15.6%

SMILES: COC(=O)CC1=NN(c2ccccc2)C(=O)/C1=C\c1ccsc1
- inhibition at 50 µM [1]: 0.355%
- inhibition at 50 µM [2]: 2.03%
- inhibition of growth at 50 µM [3]: -17.5%
- inhibition of growth at 50 µM [4]: -3.06%
- inhibition of growth at 50 µM [5]: 14.3%
- inhibition of growth at 50 µM [6]: 10.8%
- inhibition at 50 µM [7]: -23.8%
- inhibition at 50 µM [8]: -5.79%
- inhibition at 50 µM [9]: -4.41%
- inhibition of growth at 50 µM [10]: 15%
- inhibition of growth at 50 µM [11]: 33.8%
- inhibition at 50 µM [12]: 10.8%

SMILES: COC(=O)CC1=NN(c2ccccc2)C(=O)/C1=C\c1ccc(Cl)cc1
- inhibition at 50 µM [1]: 88.1%
- inhibition at 50 µM [2]: 6.08%
- inhibition of growth at 50 µM [3]: 10.3%
- inhibition of growth at 50 µM [4]: 21.9%
- inhibition of growth at 50 µM [5]: 23.1%
- inhibition of growth at 50 µM [6]: -5.15%
- inhibition at 50 µM [7]: 21.5%
- inhibition at 50 µM [8]: 86.7%
- inhibition at 50 µM [9]: 9.68%
- inhibition of growth at 50 µM [10]: 38%
- inhibition of growth at 50 µM [11]: 32.4%
- inhibition at 50 µM [12]: 20.4%

SMILES: COC(=O)CC1=NN(c2ccccc2)C(=O)/C1=C\c1ccc(N(C)C)cc1
- inhibition at 50 µM [1]: 9.7%
- inhibition at 50 µM [2]: 1.24%
- inhibition of growth at 50 µM [3]: -18.4%
- inhibition of growth at 50 µM [4]: -11.4%
- inhibition of growth at 50 µM [5]: 9.19%
- inhibition of growth at 50 µM [6]: 2.45%
- inhibition at 50 µM [7]: 35.9%
- inhibition at 50 µM [8]: -27.3%
- inhibition at 50 µM [9]: -79.8%
- inhibition of growth at 50 µM [10]: 11.5%
- inhibition of growth at 50 µM [11]: 27.7%
- inhibition at 50 µM [12]: 3.75%

SMILES: COC(=O)CC1=NN(c2ccccc2)C(=O)/C1=C\c1ccco1
- inhibition at 50 µM [1]: 6.49%
- inhibition at 50 µM [2]: 9.86%
- inhibition of growth at 50 µM [3]: -15.4%
- inhibition of growth at 50 µM [4]: -5.33%
- inhibition of growth at 50 µM [5]: 13.9%
- inhibition of growth at 50 µM [6]: -14.8%
- inhibition at 50 µM [7]: -167%
- inhibition at 50 µM [8]: -15.6%
- inhibition at 50 µM [9]: 13.9%
- inhibition of growth at 50 µM [10]: 20.4%
- inhibition of growth at 50 µM [11]: 25.9%
- inhibition at 50 µM [12]: 12.1%

SMILES: COC(=O)CC1=NN(c2ccccc2)C(=O)/C1=C\c1ccccc1Br
- inhibition at 50 µM [1]: 65.8%
- inhibition at 50 µM [2]: 50.8%
- inhibition of growth at 50 µM [3]: -6.96%
- inhibition of growth at 50 µM [4]: 8.69%
- inhibition of growth at 50 µM [5]: 32.4%
- inhibition of growth at 50 µM [6]: 9.21%
- inhibition at 50 µM [7]: 87.9%
- inhibition at 50 µM [8]: 46.5%
- inhibition at 50 µM [9]: -22.9%
- inhibition of growth at 50 µM [10]: 53.5%
- inhibition of growth at 50 µM [11]: 55%
- inhibition at 50 µM [12]: 82.6%

SMILES: COC(=O)CC1=NN(c2ccccc2)C(=O)/C1=C\c1ccc(OC)cc1OC
- inhibition at 50 µM [1]: 1.53%
- inhibition at 50 µM [2]: -0.983%
- inhibition of growth at 50 µM [3]: -5.55%
- inhibition of growth at 50 µM [4]: -6.08%
- inhibition of growth at 50 µM [5]: -1.75%
- inhibition of growth at 50 µM [6]: -3.78%
- inhibition at 50 µM [7]: 37.6%
- inhibition at 50 µM [8]: -61.9%
- inhibition at 50 µM [9]: -31.1%
- inhibition of growth at 50 µM [10]: -0.169%
- inhibition of growth at 50 µM [11]: 20.5%
- inhibition at 50 µM [12]: -5.55%

SMILES: COC(=O)CC1=NN(c2ccccc2)C(=O)/C1=C\c1cc(OC)c(OC)c(OC)c1
- inhibition at 50 µM [1]: 31.2%
- inhibition at 50 µM [2]: 10.6%
- inhibition of growth at 50 µM [3]: -3.34%
- inhibition of growth at 50 µM [4]: 1.49%
- inhibition of growth at 50 µM [5]: 15.8%
- inhibition of growth at 50 µM [6]: -0.864%
- inhibition at 50 µM [7]: 2.88%
- inhibition at 50 µM [8]: 19.8%
- inhibition at 50 µM [9]: 11%
- inhibition of growth at 50 µM [10]: 20.9%
- inhibition of growth at 50 µM [11]: 33.8%
- inhibition at 50 µM [12]: 12.8%

SMILES: COC(=O)CC1=NN(c2ccccc2)C(=O)/C1=C\c1ccc(O)cc1
- inhibition at 50 µM [1]: -0.723%
- inhibition at 50 µM [2]: 3.69%
- inhibition of growth at 50 µM [3]: -7.76%
- inhibition of growth at 50 µM [4]: -5.33%
- inhibition of growth at 50 µM [5]: 15%
- inhibition of growth at 50 µM [6]: 14.1%
- inhibition at 50 µM [7]: -7.01%
- inhibition at 50 µM [8]: 9.96%
- inhibition at 50 µM [9]: -5.96%
- inhibition of growth at 50 µM [10]: 7.95%
- inhibition of growth at 50 µM [11]: 30.2%
- inhibition at 50 µM [12]: 2.6%
